Source: US20250188149A1, “ENHANCING ESTROGEN RECEPTOR ALPHA IN OSTEOARTHRITIS” (University of Pittsburgh - Of the Commonwealth System of …, priority 2022, published 2025)

How the values were obtained:
[1] = tested on: healthy human chondrocytes; test: DOX-induced DNA damage and senescence in healthy human chondrocytes; conditions: 100 nM DOX, 3 days, vs vehicle
[2] = patients with knee OA, intra-articular injection, phase II clinical trial, vs placebo; cited from earlier work

Row | Structure (SMILES) | DNA damage (p21, γH2AX levels, comet assay) [1] | IL-6 and IL-8 expression (real-time qPCR) [1] | NF-κB pathway (NFκB gene, p-p65) [1] | SA-β-Gal staining (senescent phenotype) [1] | p16INK4A and p21 levels [1] | ERα level ([1]; western blot and IF) | reduction of joint pain and stiffness [2]
1 | COc1cccc2c1C(=O)c1c(O)c3c(c(O)c1C2=O)C[C@@](O)(C(=O)CO)C[C@@H]3O[C@H]1C[C@H](N)[C@H](O)[C@H](C)O1 [DOX, doxorubicin] | significant DNA damage | upregulation | activated | increased | upregulation | significantly reduced | –
2 | CC1(C)CCC(c2ccc(Cl)cc2)=C(CN2CCN(c3ccc(C(=O)NS(=O)(=O)c4ccc(N[C@H](CCN5CCOCC5)CSc5ccccc5)c(S(=O)(=O)C(F)(F)F)c4)cc3)CC2)C1 [ABT-263] | – | – | – | – | – | – | failed to outperform a placebo
